Values of other authors, collected in US20170071955A1, “METHOD OF STABILIZING WEIGHT AFTER A WEIGHT-LOSS DIET USING PHYTOECDYSONES” (BIOPHYTIS SA, priority 2011, published 2017).

Conditions: mammals on a fattening hypercaloric diet

**Q.** With `CC(C)(O)CC[C@@H](O)[C@](C)(O)[C@H]1CC[C@@]2(O)C3=CC(=O)[C@@H]4C[C@@H](O)[C@@H](O)C[C@]4(C)[C@H]3CC[C@]12C` [20-hydroxyecdysone] as the molecule, how does the “effect on body fat” value read?
**A.** Its value is “reduce the increase of body fat”.
